Molecular target: T1, Recombinant full length human OGA enzyme (Homo sapiens, UniProt O60502)
T1 construct: Recombinant full length human OGA enzyme was purchased from Origene; purchased Origene
T1 sequence (O60502 1-916): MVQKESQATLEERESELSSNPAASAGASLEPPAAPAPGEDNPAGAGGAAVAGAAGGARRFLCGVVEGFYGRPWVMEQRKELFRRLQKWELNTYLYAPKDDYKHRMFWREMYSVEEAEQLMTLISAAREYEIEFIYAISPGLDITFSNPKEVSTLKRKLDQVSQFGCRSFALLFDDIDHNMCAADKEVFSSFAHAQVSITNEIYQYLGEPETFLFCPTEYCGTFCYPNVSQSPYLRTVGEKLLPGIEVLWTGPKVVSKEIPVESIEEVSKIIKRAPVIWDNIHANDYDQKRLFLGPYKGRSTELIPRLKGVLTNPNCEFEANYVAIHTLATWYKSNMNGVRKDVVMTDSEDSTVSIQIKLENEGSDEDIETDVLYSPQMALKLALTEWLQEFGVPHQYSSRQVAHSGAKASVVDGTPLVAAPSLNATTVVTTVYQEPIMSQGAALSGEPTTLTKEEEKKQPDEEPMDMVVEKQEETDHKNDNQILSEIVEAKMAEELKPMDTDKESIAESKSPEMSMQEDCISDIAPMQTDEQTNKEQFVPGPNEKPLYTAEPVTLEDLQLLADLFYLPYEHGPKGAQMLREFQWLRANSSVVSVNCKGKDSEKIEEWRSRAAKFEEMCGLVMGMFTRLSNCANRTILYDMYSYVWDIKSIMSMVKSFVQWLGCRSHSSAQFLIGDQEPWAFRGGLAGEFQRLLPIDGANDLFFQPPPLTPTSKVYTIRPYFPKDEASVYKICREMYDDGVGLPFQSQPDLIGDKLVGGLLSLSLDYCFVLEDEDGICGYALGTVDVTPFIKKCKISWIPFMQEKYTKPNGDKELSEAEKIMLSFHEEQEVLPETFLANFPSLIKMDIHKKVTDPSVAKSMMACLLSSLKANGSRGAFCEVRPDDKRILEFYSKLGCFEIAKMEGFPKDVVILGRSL
Experiment: OGA Enzyme Inhibition Biochemical Assay
Details: 1 nM OGA, 100 μM 4-MUGlcNAc (Km), pH 6.4, 90 minutes at room temperature, 10-point dose-response from 20 μM
Protocol: OGA Enzyme Inhibition Biochemical Assay
Recombinant full length human OGA enzyme was purchased from Origene. 4-MUGlCNAc substrate was purchased from Sigma. All other reagents were purchased from Sigma or Fisher. Assay buffer consists of the McIlvaine buffer system, pH 6.4 (0.2M Na2HPO4 mixed with 0.1M citric acid) and 0.01% BSA. Reactions consist of 1 nM OGA, 100 μM 4-MUGlcNAc (Km), and compound in a final volume of 10 μl. Reactions were incubated for 90 minutes at room temperature and quenched with 40 μl of 3M glycine, pH 10 and read on a Perkin Elmer Envision plate reader (Ex: 355 nm/Em: 460 nm). Compounds were tested with a 10-point dose-response starting from 20 μM with a 4-fold dilution. Data was fit using GraphPad Prism using a 4-parameter fit with variable slope.

| IC50 [nM] | Compound |
| --- | --- |
| 2 | COc1nccc(CC2CCCN(Cc3cnc(NC(C)=O)s3)C2)c1C (stereo not shown) [Example 2-3, N-(5-((3-((2-methoxy-3-methylpyridin-4-yl)methyl)piperidin-1-yl)methyl)thiazol-2-yl)acetamide] |
| 2 | COc1cnc(CC2CCCN(Cc3cnc(NC(C)=O)s3)C2)nc1 (stereo not shown) [Example 2-4, N-(5-((3-((5-methoxypyrimidin-2-yl)methyl)piperidin-1-yl)methyl)thiazol-2-yl)acetamide] |
| 23 | CC(=O)Nc1ncc(CN2CCCC(Cc3ccc(F)cn3)C2)s1 (stereo not shown) [Example 2-5, N-(5-((3-((5-fluoropyridin-2-yl)methyl)piperidin-1-yl)methyl)thiazol-2-yl)acetamide] |
| 8 | COc1nc(C[C@H]2CCCN(Cc3cnc(NC(C)=O)s3)C2)ncc1F [Example 2-6, (R)-N-(5-((3-((5-fluoro-4-methoxypyrimidin-2-yl)methyl)piperidin-1-yl)methyl)thiazol-2-yl)acetamide] |
| 3 | CC(=O)Nc1ncc(CN2CCC[C@H](Cc3ncc(F)c(C)n3)C2)s1 [Example 2-7, (R)-N-(5-((3-((5-fluoro-4-methylpyrimidin-2-yl)methyl)piperidin-1-yl)methyl)thiazol-2-yl)acetamide] |
| 18 | CC(=O)Nc1ncc(CN2CCC[C@H](Cc3ccc(C(F)F)nc3)C2)s1 [Example 2-8, (R)-N-(5-((3-((6-(difluoromethyl)pyridin-3-yl)methyl)piperidin-1-yl)methyl)thiazol-2-yl)acetamide] |
| 30 | CC(=O)Nc1ncc(CN2CCC[C@H](Cc3ncc(C(F)(F)F)cn3)C2)s1 [Example 2-9, (R)-N-(5-((3-((5-(trifluoromethyl)pyrimidin-2-yl)methyl)piperidin-1-yl)methyl)thiazol-2-yl)acetamide] |
| 240 | CC(=O)Nc1ncc(CN2CCCC(F)(Cc3ncc(F)cn3)C2)s1 (stereo not shown) [Example 2-12, N-(5-((3-fluoro-3-((5-fluoropyrimidin-2-yl)methyl)piperidin-1-yl)methyl)thiazol-2-yl)acetamide] |
| 450 | CC(=O)Nc1ncc(CN2CC(Cc3ncc(F)cn3)CC(F)(F)C2)s1 (stereo not shown) [Example 2-13, N-(5-((3,3-difluoro-5-((5-fluoropyrimidin-2-yl)methyl)piperidin-1-yl)methyl)thiazol-2-yl)acetamide] |
| 12 | CC(=O)Nc1ncc(CN2CCC(F)(F)C(Cc3ncc(F)cn3)C2)s1 (stereo not shown) [Example 2-14, N-(5-((4,4-difluoro-3-((5-fluoropyrimidin-2-yl)methyl)piperidin-1-yl)methyl)thiazol-2-yl)acetamide] |
| 84 | CC(=O)Nc1ncc(CN2CCC(Cc3ccccn3)C2)s1 (stereo not shown) [Example 2-15, N-(5-((3-(pyridin-2-ylmethyl)pyrrolidin-1-yl)methyl)thiazol-2-yl)acetamide] |
| 880 | CC(=O)Nc1ncc(CN2CCC(F)(Cc3ncc(F)cn3)C2)s1 (stereo not shown) [Example 2-16, N-(5-((3-fluoro-3-((5-fluoropyrimidin-2-yl)methyl)pyrrolidin-1-yl)methyl)thiazol-2-yl)acetamide] |
| 2 | CC(=O)Nc1ncc(CN2CC(Cc3ncc(F)cn3)CC2C)s1 (stereo not shown) [Example 2-17, N-(5-((4-((5-fluoropyrimidin-2-yl)methyl)-2-methylpyrrolidin-1-yl)methyl)thiazol-2-yl)acetamide] |
| 122 | CC(=O)Nc1ncc(CN2CCC[C@@H](Cc3ncc(F)cn3)C2)s1 [Example 2-33, N-[5-[[(3S)-3-[(5-fluoropyrimidin-2-yl)methyl]-1-piperidyl]methyl]thiazol-2-yl]acetamide] |
| 450 | CC(=O)Nc1ncc(CN2CCCC(C)(Cc3ncc(F)cn3)C2)s1 (stereo not shown) [Example 2-34, N-(5-((3-((5-fluoropyrimidin-2-yl)methyl)-3-methylpiperidin-1-yl)methyl)thiazol-2-yl)acetamide] |
| 1600 | CC(=O)Nc1ncc(CN2CCC(C)(Cc3ncc(F)cn3)C2)s1 (stereo not shown) [Example 2-35, N-(5-((3-((5-fluoropyrimidin-2-yl)methyl)-3-methylpyrrolidin-1-yl)methyl)thiazol-2-yl)acetamide] |

— patent publication US11459324B2, “O-glycoprotein-2-acetamido-2-deoxy-3-D-glycopyranosidase inhibitors” (BIOGEN MA INC., priority 2018, dated 2022)
